Source: patent US7339042B2, “Gene delivery to tumors” (University of Florida Research Foundation, Inc., priority 2003, dated 2008)
Entries after “also recorded” stand apart in the source; their conditions may differ. No end group written: not given here.

How the values were obtained:
RG2 cells [1] = assay: Fusion peptide cell killing, propidium iodide/FACS viability, RG2 cells; assay type: cell-based, rat
Protocol: (§1) Other experiments were performed using two glioma cell lines, i.e., T98G and RG2. 1×10^6 cells per well were incubated in 6-well plates with peptides in complete media for 1 hr. Cells were removed from the plate using a cell stripper and the percentage of viable cells was determined by staining with propidium iodide and analyzing by fluorescence activated cell sorting (FACS).
There are 4 conserved amino acid differences between the rat and human CDKI sequence. Both sequences were attached to Tat and tested for cell killing activity in the rat glioma RG2 cells. Also the effect of orientation of the Tat and CDKI domains were tested. RG2 cells were plated on 6 well plates at approximately 70% confluency. Each of the peptides was added to the wells with increasing concentration. After 1 hr, cells were removed from the plates, washed 2× with PBS, stained with propidium iodide and analyzed by FACS for viable cells.
(§2) Cell viability studies were performed by plating the cells under the same conditions as the uptake studies. Cells were incubated with fluorescent peptides for 1 hr at 37° C. The cells were removed from the plate using cell striper. They were labeled with propidium iodide and fluorescein-AM. Percent PI positive cells were determined by FACS.
The cytotoxicity of the chimeric peptides was characterized using a cell viability assay. Peptides were added to cells at a fixed concentration. After a 30-minute incubation, cells were removed from the plate, stained with propidium iodide and the % positive cells were determined by FACS (fluorescent activated cell scanning). The test conditions were Tat, ANT, Tat-P14ARF, ANT-P14ARF and P14ARF. T98G cells were tested along with RG2 cells and A172 cells.

A172 glioblastoma cells = assay: Peptide incubation with A172 glioblastoma cells, viability; assay type: cell-based, human; conditions: 6 μM, 30 minutes at 37° C.
Protocol: Fusion proteins containing a Tat domain and a p16 domain were synthesized as peptides. Two forms of the peptides were made, one with Tat on the amino terminus (designated Tat-P16), and the other with p16 on the amino terminus (P16-Tat). Control peptides were synthesized having only the Tat or P16 sequence. The peptides were incubated with A172 glioblastoma cells, then the cells were assayed for viability.

RG2 cells [2] = assay: Fluorescein peptide uptake by RG2 cells, fluorescence microscopy; assay type: cell-based, rat
Protocol: (§3) For fluorescent microscopy studies cells were plated on 2 chamber cover slips at a density of 1×10^4 cells/chamber. Cells were incubated with […] peptide for 30 minutes in completed media, washed with PBS 3× and imaged using a Nikon Axiophot inverted fluorescent microscope. Images were taken using a Spot CCD camera.
Similar observations were obtained for all the peptides in another human glioblastoma cell line, T98G.

A172 cells = assay: Fluorescein peptide uptake by A172 cells, fluorescence microscopy; assay type: cell-based, human; conditions: 30 uM peptide, 1 hr, 37° C., serum containing media
Protocol: as §3
Synthetic peptides derived from HIV Tat (Tat) and the Drosophila antennaepedia homeodomain (ANT) were tested for cell uptake by A172 cells (human glioblastomas). The peptides were labeled at the N-terminus with fluorescein. Cells were incubated with 30 uM peptide at 37° C. in serum containing media. Fluorescent micrographs were taken after 1 hr incubation at 37° C. […] The size of the peptide was increased by added an Mdm-2 binding domain derived from P14ARF. This domain was added to the C-terminus of the Tat and ANT peptides. The P14ARF domain was also placed at the N-terminus followed by the Tat peptide. All the peptides were labeled at the N-terminus with fluorescein and cell incubations similar to the Tat and ANT peptides were tested for cellular uptake. […] Both the bright field and fluorescent micrographs show altered cell morphology.

rat cerebral arteries [3] = assay: Cell viability staining of arteries (propidium iodide, H3334) after peptide; assay type: cell-based; conditions: after treatment with peptide
Protocol: No PI statined smooth muscle cell nuclei were observed.
(§4) Effect of peptide on endothelial and smooth muscle function was evaluated by histamine (0.3 and 1 μM) and bradykinin (0.5 μM) (endothelium-dependent vasodilators) and 16 and 60 mM KCl (results in dilation and constriction of arteries by hyperpolarizing and depolarizing smooth muscle, respectively). These drug solutions were added to the superfusate and applied to the arteries extraluminally for 10 to 15 min before and after intraluminal perfusion with peptides. Effects of these agents were expressed as percent change in myogenic tone (decrease for dilators and increase for constrictors). Experiments were concluded by exposing the arteries to calcium free PCSF to obtain the passive diameter. Cell viability was determined by adding H3334 (Hoechst viability stain, final concentration 1 μM) and propidium iodide (final concentration 1 μM) to the arteriograph after the peptide incubation. Fluorescent micrographs were taken of the vessels after incubation with peptides and following addition of the vital stains using Till Photonics imaging system (Martinsried, Germany).

rat cerebral arteries [4] = assay: Vasodilation and vasoconstriction response of rat cerebral arteries before and after peptide; assay type: cell-based; conditions: after vs before intraluminal peptide
Protocol: The blood vessels were put in culture described above and perfused with buffer of the same composition as cerebrospinal fluid. Vessel diameter was measured before and after administration of each reagent. 3 μM of each peptide was perfused through for 10 minutes followed by a 10 minute wash through. Vasoconstriction and vasodilation were determined for each vessel before peptide was applied. Perfusion was continued until the vessels relaxed to their original diamter (approximately 30 minutes). The vasoconstriction and vasodilation reponse was remeasured after the 10 minute wash through. The 60 mM KCl and 16 mM KCl conditions are […], respectively. Histamine and Bradykinin are endothelial cell vasodilators.
(§5) In some experiments, the arterial segments were denuded of endothelium by passing an air bubble through the lumen, thus exposing the smooth muscle cells to luminally administered peptides. Constriction to pressure and 60 mM KCl and dilation of arteries with myogenic tone to 16 mM KCl were used as benchmarks of functional arteries. Peptide containing PCSF was perfused intraluminally at an inlet pressure of 70 mmHg with the outlet open, for 20 min and then perfused with normal PCSF. This procedure ensures a 20 min of exposure of the arteries to the peptide.
as §4

T98G cells = assay: Fusion peptide cell killing, propidium iodide/FACS viability, T98G cells; assay type: cell-based, human; conditions: 10 μM peptide, 1 hr
Protocol: as §1, §2

[5] = test system: endothelial cells and smooth muscle cells of rat cerebral arteries; assay: Uptake of fluorescent peptides by pressure-mounted rat cerebral arteries; assay type: cell-based
Protocol: Tat-P16 peptides were prepared and labeled with fluorescein for use in uptake studies using intact blood vessels isolated from rat brain. Blood vessels were dissected from rat brain and stabilized in an isolated perfusion system in which vessels were attached on either end to catheters and placed under physiological pressure. Following a 10 minute perfusion of the isolated vessels with flurorescent Tat-P16 peptide (1 μM), vessels were examined for uptake of the peptides. […] Within the endothelial cells, the labeled peptides were seen to be localized to the cell nuclei, further confirming uptake of the peptides by the cells.
The peptides are fairly labile in the media and approximately 50% are degraded upon incubation at 37° C. in complete media (qualitative analysis by PAGE) after 1 hour. […] Uptake of these peptides and cell killing activity was tested in a 3 dimensional organ culture using rat cerebral arteries cultured under physiological pressure and flow. A segment of the rat cerebral artery is surgically removed and placed in ringer's solution. Using a surgical stereoscope, the blood vessel is tied at either end to two cannulas on a teflon stage. Ringer's solution is perfused through the lumen of the vessel at a constant rate that maintains physiologic hydrostatic pressure. The fluorescent peptide was introduced intraluminally by perfusing a 1 μM solution of peptide through the lumen over a 10 minute period.
Rats were anesthetized by intraperitoneal injection of pentobarbital sodium (160 mg/kg) and killed by decapitation. The brain was removed and placed in an ice-cold oxygenated physiological cerebrospinal fluid (PCSF, see below for composition). Cerebellar arteries were isolated and mounted in an arteriograph as described previously (Knot and Nelson 1998). The arteriograph was placed on an inverted microscope and the artery was visualized with a monochrome CCD camera coupled to a calibrated video caliper system to measure arterial diameter. The arteries were slowly pressurized to 70 mmHg under no flow conditions using a pressure servo-null system (Living Systems Inc., Burlington Vt.), and warmed to 37° C. while being continuously superfused (5 ml/min) with PCSF bubbled with 21% O2, 5% CO2, 74% N2 (pH 7.35-7.40 in the bath). […] Myogenic tone is calculated by the following equation: Myogenic tone=(Dp−Da)/Dp×100
as §5

[6] = intraluminal perfusion of fluorescent peptide

With “AGGGYGRKKRRQRRRMVRRFLVTLRIRRA [Tat-P14ARF]” the “% killing (toxicity)” value (RG2 cells [1]; 10 μM peptide, 1 hr) was 61%, the IC50 (RG2 cells [1]; dose response 1 μM to 10 μM) was roughly 10 µM and the effect on cells (A172 glioblastoma cells) was “began to round up and subsequently die”. The “staining pattern (cell uptake)” value (RG2 cells [2]) was “nuclear staining”, the “staining pattern (cell uptake)” value (A172 cells) was “nuclear staining” and the “propidium iodide staining of blood vessels” value (rat cerebral arteries [3]) was “predominantly horizontal endothelial nuclei being stained indicating cell death”. For the same sequence, the “endothelium-dependent dilation to histamine and bradykinin” value (rat cerebral arteries [4]) was “inhibited endothelial cell response to histamine and bradykinin; also recorded: significantly reduced”, the “smooth muscle response to 60 and 16 mM KCl” value (rat cerebral arteries [4]) was “unaffected; also recorded: not affected” and the “endothelium-dependent dilation to histamine and bradykinin” value (rat cerebral arteries [4]; listed as Tat-CDKI) was “lack of response to vasodilators”. The “% killing (toxicity)” value (T98G cells) was 65%, the “morphology of the endothelial cells” value ([5]; after intraluminal exposure) was “morphology of the endothelial cells was altered” and the “labeling/uptake by endothelial cells” value [5, 6] was “same labeling pattern as the Tat alone”. The “labeling/uptake by smooth muscle cells” value [5, 6] was “No evidence was seen of uptake” and the “labeling/uptake by endothelial cells” value ([5]; intraluminal perfusion of fluorescent peptide, listed as Tat-P16) was “taken up by the endothelial cells; also recorded: localized to the endothelial cells”.
